Read-outs that look alike come from different tables or passages of the source.
Columns and labels:
[1] = test system: Key Broadleaf Weed and Crop Species; test: Post-Emergent Test II (Table 5); assay type: in vivo; details: post-emergence, 336 h; for pest or weed control at 70 g/ha: application rate 70 (kg ai/ha; footnote: g ai/ha); for pest or weed control at 140 g/ha: application rate 140 (kg ai/ha; footnote: g ai/ha)
Method in brief: (§1)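 Plants grown in a greenhouse (~15 h photoperiod, 23-29° C day) to first or second true leaf stage were sprayed post-emergence at 187 L/ha with compound in acetone/DMSO-based aqueous spray containing crop oil concentrate and surfactant, applied at a high rate plus ½× to 1/16× serial rates. Injury was scored visually 14 days later, 0-100% versus untreated plants.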

[2] = test system: Key Grass and Sedge Weeds as well as Grass Crops; test: Post-Emergent Test II (Table 6); assay type: in vivo; details: post-emergence, 336 h, 14 days after application; for pest or weed control at 70 g/ha: 70 g ai/ha; for pest or weed control at 140 g/ha: 140 g ai/ha
Method in brief: as §1

[3] = Abutilon theophrasti, ABUTH: velvetleaf (Abutilon theophrasti), read-out: Visual Growth Reduction (%) 14 Days After Application ABUTH
[4] = Amaranthus retroflexus, AMARE: redroot pigweed (Amaranthus retroflexus), read-out: Visual Growth Reduction (%) 14 Days After Application AMARE
[5] = Brassica napus, BRSSS: oilseed rape, canola (Brassica napus), read-out: Visual Growth Reduction (%) 14 Days After Application BRSSS
[6] = Chenopodium album, CHEAL: lambsquarters (Chenopodium album), read-out: Visual Growth Reduction (%) 14 Days After Application CHEAL
[7] = Euphorbia heterophylla, EPHHL: wild poinsettia (Euphorbia heterophylla), read-out: Visual Growth Reduction (%) 14 Days After Application EPHHL
[8] = Helianthus annuus, HELAN: sunflower (Helianthus annuus), read-out: Visual Growth Reduction (%) 14 Days After Application HELAN
[9] = Viola tricolor, VIOTR: wild pansy (Viola tricolor), read-out: Visual Growth Reduction (%) 14 Days After Application VIOTR
[10] = CYPSS, read-out: Visual Growth Reduction (%) 14 Days After Application CYPSS
[11] = DIGSA: crabgrass (Digitaria sanguinalis), read-out: Visual Growth Reduction (%) 14 Days After Application DIGSA
[12] = ECHSS, read-out: Visual Growth Reduction (%) 14 Days After Application ECHSS
[13] = ORYSS (crop), read-out: Visual Growth Reduction (%) 14 Days After Application ORYSS
[14] = SETFA: giant foxtail (Setaria faberi), read-out: Visual Growth Reduction (%) 14 Days After Application SETFA
[15] = SORVU: grain sorghum (Sorghum vulgare), read-out: Visual Growth Reduction (%) 14 Days After Application SORVU
[16] = TRZSS (crop), read-out: Visual Growth Reduction (%) 14 Days After Application TRZSS
[17] = ZEAMX: maize, corn (Zea mays), read-out: Visual Growth Reduction (%) 14 Days After Application ZEAMX

Structure (SMILES) | pest or weed control at 70 g/ha [1, 3] [%] | pest or weed control at 140 g/ha [1, 3] [%] | pest or weed control at 70 g/ha [1, 4] [%] | pest or weed control at 140 g/ha [1, 4] [%] | pest or weed control at 70 g/ha [1, 5] [%] | pest or weed control at 140 g/ha [1, 5] [%] | pest or weed control at 70 g/ha [1, 6] [%] | pest or weed control at 140 g/ha [1, 6] [%] | pest or weed control at 70 g/ha [1, 7] [%] | pest or weed control at 140 g/ha [1, 7] [%] | pest or weed control at 70 g/ha [1, 8] [%] | pest or weed control at 140 g/ha [1, 8] [%] | pest or weed control at 70 g/ha [1, 9] [%] | pest or weed control at 140 g/ha [1, 9] [%] | pest or weed control at 70 g/ha [2, 10] [%] | pest or weed control at 140 g/ha [2, 10] [%] | pest or weed control at 70 g/ha [2, 11] [%] | pest or weed control at 140 g/ha [2, 11] [%] | pest or weed control at 70 g/ha [2, 12] [%] | pest or weed control at 140 g/ha [2, 12] [%] | further results
Nc1c(Cl)c(C(=O)O)nc(-c2ccc(C(F)(F)F)nc2)c1Cl [Compound 33] | 0 to 29 | 0 to 29 | 60 to 74 | 95 to 100 | 0 to 29 | 30 to 44 | 85 to 94 | 85 to 94 | 75 to 84 | 75 to 84 | 85 to 94 | 95 to 100 | 0 to 29 | 0 to 29 | 95 to 100 | 95 to 100 | 45 to 59 | 60 to 74 | 60 to 74 | 60 to 74 | pest or weed control at 70 g/ha [2, 13]: 0 to 29%; pest or weed control at 140 g/ha [2, 13]: 0 to 29%; pest or weed control at 70 g/ha [2, 14]: 75 to 84%; pest or weed control at 140 g/ha [2, 14]: 75 to 84%; pest or weed control at 70 g/ha [2, 15]: 75 to 84%; pest or weed control at 140 g/ha [2, 15]: 75 to 84%; pest or weed control at 70 g/ha [2, 16]: 30 to 44%; pest or weed control at 140 g/ha [2, 16]: 45 to 59%; pest or weed control at 70 g/ha [2, 17]: 60 to 74%; pest or weed control at 140 g/ha [2, 17]: 60 to 74%; melting point: 155 to 158 °C
COC(=O)c1nc(-c2ccc(Cl)c(F)c2OC)nc(N)c1OC [Compound 70, Methyl 6-amino-2-(4-chloro-3-fluoro-2-methoxyphenyl)-5-methoxypyrimidine-4-carboxylate] | 85 to 94 | 60 to 74 | 95 to 100 | 95 to 100 | 95 to 100 | 95 to 100 | 95 to 100 | 95 to 100 | 0 to 29 | 0 to 29 | 95 to 100 | 95 to 100 | 0 to 29 | 0 to 29 | 0 to 29 | 0 to 29 | 0 to 29 | 0 to 29 | 0 to 29 | 0 to 29 | pest or weed control at 70 g/ha [2, 13]: 0 to 29%; pest or weed control at 140 g/ha [2, 13]: 0 to 29%; pest or weed control at 70 g/ha [2, 14]: 0 to 29%; pest or weed control at 140 g/ha [2, 14]: 0 to 29%; pest or weed control at 70 g/ha [2, 15]: 0 to 29%; pest or weed control at 140 g/ha [2, 15]: 0 to 29%; pest or weed control at 70 g/ha [2, 16]: 0 to 29%; pest or weed control at 140 g/ha [2, 16]: 0 to 29%; pest or weed control at 70 g/ha [2, 17]: 0 to 29%; pest or weed control at 140 g/ha [2, 17]: 0 to 29%; melting point: 60 to 61 °C
